Patent US20100121049A1, “INDENOISOQUINOLINONE ANALOGS AND METHODS OF USE THEREOF” (INOTEK PHARMACEUTICALS CORPORATION, priority 2007, published 2010)
Structures can show the parent of a compound that is named as a salt.

Molecular target: T1, PARP (Mus musculus, UniProt P11103)
T1 construct: PARP Activity in Cultured Macrophages, Using a Whole-Cell Based Assay; host or cells: murine RAW macrophages
Assay: PARP activity in cultured macrophages, whole-cell based assay (3H-NAD+ incorporation after hydrogen peroxide)
Conditions: murine RAW macrophages; compound 1 hour prior to hydrogen peroxide (0.5 mM) for 25 minutes; PARP activity by 3H-NAD+
Experimental: Effect of Indenoisoquinolinone Analogs on PARP Activity in Cultured Macrophages, Using a Whole-Cell Based Assay
The murine RAW macrophages (ATCC, American Type Culture Collection, Manassas, Va.) were grown in RPMI […] (Invitrogen Life Technologies; Carlsbad, Calif.) medium supplemented with 10% heat-inactivated FBS, 2 mM L-glutamine, and 100 U/ml of penicillin and streptomycin. Cells, between passages 5 and 15, were seeded at a density of 250,000 cells/well in 12 well plates and allowed to grow 48 hours before use. Growth medium was changed on the day of use. Cells were treated with an Indenoisoquinolinone Analog diluted in a growth medium supplemented with 10% fetal bovine serum (FBS) for 1 hour prior to the addition of hydrogen peroxide (0.5 mM) for a further 25 minutes. For the measurement of PARP activity, media was removed and replaced with 0.5 ml of the assay buffer (56 mM HEPES-pH 7.5, 28 mM KCl, 28 mM NaCl, 2 mM MgCl2, 0.01% digitonin, and 0.5 μCi/m1 of ^3H-NAD^+) for 20 minutes. After aspirating the assay buffer, cells were lysed and transferred to eppendorf tubes containing 250 μl of 50% ice-cold trichloroacetic acid (TCA), which were then placed at 4° C. for 4 hours. Samples were centrifuged at 10,000 g for 10 minutes and supernatant removed. The pellets were washed twice with 500 μl of ice-cold 5% w/v TCA. The pellets were then solubilized in 250 μl of NaOH (0.1 M) containing 2% SDS overnight at 37° C. and the PARP activity was then determined by measuring the radioactivity incorporated using a Wallac scintillation counter. The solubilized protein (250 μl) was mixed with 5 ml of scintillation fluid (ScintiSafe Plus, Fisher Scientific) before being counted for 3 minutes. EC50 values were determined from a dose-response curve.

T1 sequence (P11103 whole entry): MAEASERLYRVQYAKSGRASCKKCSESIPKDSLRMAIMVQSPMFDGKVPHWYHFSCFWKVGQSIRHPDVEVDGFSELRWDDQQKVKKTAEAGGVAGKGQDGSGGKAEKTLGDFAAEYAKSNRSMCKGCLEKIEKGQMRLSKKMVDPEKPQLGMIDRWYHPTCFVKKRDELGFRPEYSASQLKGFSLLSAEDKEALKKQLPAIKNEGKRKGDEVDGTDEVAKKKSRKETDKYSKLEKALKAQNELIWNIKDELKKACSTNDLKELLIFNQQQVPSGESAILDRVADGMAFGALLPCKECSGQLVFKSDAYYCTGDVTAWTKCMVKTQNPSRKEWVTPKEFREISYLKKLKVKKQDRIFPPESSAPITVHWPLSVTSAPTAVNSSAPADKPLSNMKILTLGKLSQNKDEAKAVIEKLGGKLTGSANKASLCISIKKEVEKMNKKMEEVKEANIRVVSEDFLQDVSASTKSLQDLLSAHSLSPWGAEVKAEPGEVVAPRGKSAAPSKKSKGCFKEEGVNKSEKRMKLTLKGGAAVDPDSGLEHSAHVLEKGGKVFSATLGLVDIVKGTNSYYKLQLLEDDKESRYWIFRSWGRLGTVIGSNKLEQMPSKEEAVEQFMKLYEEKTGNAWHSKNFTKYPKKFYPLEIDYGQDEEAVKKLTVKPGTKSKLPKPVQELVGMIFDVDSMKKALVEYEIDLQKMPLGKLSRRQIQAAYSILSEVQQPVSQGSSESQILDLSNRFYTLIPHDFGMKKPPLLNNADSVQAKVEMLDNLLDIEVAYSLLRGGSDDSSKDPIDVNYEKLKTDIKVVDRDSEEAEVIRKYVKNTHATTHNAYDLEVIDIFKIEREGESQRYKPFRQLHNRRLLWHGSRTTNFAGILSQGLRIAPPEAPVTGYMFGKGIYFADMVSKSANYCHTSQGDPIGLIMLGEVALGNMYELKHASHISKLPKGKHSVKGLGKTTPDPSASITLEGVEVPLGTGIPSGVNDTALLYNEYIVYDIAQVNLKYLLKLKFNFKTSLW

EC50	Compound
10 nM	O=c1[nH]c2c(c3ccccc13)Cc1cc(CN3CCN(CC4CC4)CC3)ccc1-2 [Dihydrochloride salt of IIIb-3, 9-[1-(4-Cyclopropylmethylpiperazino)methyl]-5,6-dihydro-5-oxo-11-H-indeno[1,2-c]isoquinoline dihydrochloride]
20 nM	O=c1[nH]c2c(c3ccccc13)Cc1cc(CN3CCN(C4CCCCC4)CC3)ccc1-2 [Dihydrochloride salt of IIIb-14, 9-[1-(4-Cyclohexylpiperazino)methyl]-5,6-dihydro-5-oxo-11-H-indeno[1,2-c]isoquinoline dihydrochloride]
45 nM	CC(C)N1CCN(Cc2cccc3c2Cc2c-3[nH]c(=O)c3ccccc23)CC1 [IIIa-1, 10-[1-(4-iso-Propylpiperazino)methyl]-5,6-dihydro-5-oxo-11-H-indeno[1,2-c]isoquinoline]
25 nM	CCCCN1CCN(Cc2cccc3c2Cc2c-3[nH]c(=O)c3ccccc23)CC1 [IIIa-2, 10-[1-(4-Butylpiperazino)methyl]-5,6-dihydro-5-oxo-11-H-indeno[1,2-c]isoquinoline]
20 nM	O=c1[nH]c2c(c3ccccc13)Cc1c(CN3CCN(CC4CC4)CC3)cccc1-2 [IIIa-3, 10-[1-(4-Cyclopropylmethylpiperazino)methyl]-5,6-dihydro-5-oxo-11-H-indeno[1,2-c]isoquinoline]
15 nM	O=c1[nH]c2c(c3ccccc13)Cc1c(CNCCCO)cccc1-2 [IIIa-4, 10-[N-1-(3-Hydroxypropyl)aminomethyl]-5,6-dihydro-5-oxo-11-H-indeno[1,2-c]isoquinoline]
40 nM	O=c1[nH]c2c(c3ccccc13)Cc1c(CNCCN3CCCC3)cccc1-2 [IIIa-5, 10-[N-(2-Pyrollidinoethyl)aminomethyl}-5,6-dihydro-5-oxo-11-H-indeno[1,2-c]isoquinoline]
75 nM	O=c1[nH]c2c(c3ccccc13)Cc1c(CN3CCN(c4ncccn4)CC3)cccc1-2 [IIIa-8, 10-{1-[4-(2-Pyrimidyl)piperazino]methyl}-5,6-dihydro-5-oxo-11-H-indeno[1,2-c]isoquinoline]
12 nM	O=c1[nH]c2c(c3ccccc13)Cc1c(CN3CC[C@H](F)C3)cccc1-2 [IIIa-11, 10-[S-(3-Fluoropyrrolidino)methyl]-5,6-dihydro-5-oxo-11-H-indeno[1,2-c]isoquinoline]
7 nM	O=c1[nH]c2c(c3ccccc13)Cc1c(CN3CC=CCC3)cccc1-2 [IIIa-12, 10-[(3,4-Dehydropiperidino)methyl]-5,6-dihydro-5-oxo-11-H-indeno[1,2-c]isoquinoline]
20 nM	CC(C)N1CCN(Cc2ccc3c(c2)Cc2c-3[nH]c(=O)c3ccccc23)CC1 [IIIb-1, 9-[1-(4-iso-Propylpiperazino)methyl]-5,6-dihydro-5-oxo-11-H-indeno[1,2-c]isoquinoline]
25 nM	CCCCN1CCN(Cc2ccc3c(c2)Cc2c-3[nH]c(=O)c3ccccc23)CC1 [IIIb-2, 9-[1-(4-Butylpiperazino)methyl]-5,6-dihydro-5-oxo-11-H-indeno[1,2-c]isoquinoline]
75 nM	O=c1[nH]c2c(c3ccccc13)Cc1cc(CN3CCN(c4ncccn4)CC3)ccc1-2 [IIIb-8, 9-{1-[4-(2-Pyrimidyl)piperazino]methyl}-5,6-dihydro-5-oxo-11-H-indeno[1,2-c]isoquinoline]
20 nM	O=c1[nH]c2c(c3ccccc13)Cc1cc(CN3CCN(C4CCCC4)CC3)ccc1-2 [IIIb-9, 9-[1-(4-Cyclopentylpiperazino)methyl]-5,6-dihydro-5-oxo-11-H-indeno[1,2-c]isoquinoline dihydrochloride]
75 nM	CCOCCN1CCN(Cc2ccc3c(c2)Cc2c-3[nH]c(=O)c3ccccc23)CC1 [IIIb-10, 9-{1-[4-(2-Ethoxyethyl)piperazino]methyl}-5,6-dihydro-5-oxo-11-H-indeno[1,2-c]isoquinoline]
25 nM	CN1CCCN(Cc2ccc3c(c2)Cc2c-3[nH]c(=O)c3ccccc23)CC1 [IIIb-13, 9-[1-(4-Methylhomopiperazino)methyl]-5,6-dihydro-5-oxo-11-H-indeno[1,2-c]isoquinoline]
75 nM	CC(C)(O)CN1CCN(Cc2ccc3c(c2)Cc2c-3[nH]c(=O)c3ccccc23)CC1 [IIIb-18, 9-[4-(2-Hydroxy-2-methyl-propyl-piperazino)methyl]-5,6-dihydro-5-oxo-11-H-indeno[1,2-c]isoquinoline dihydrochloride]

EC50	Compound
30 nM	CN(CCN1CCOCC1)Cc1ccc2c(c1)Cc1c-2[nH]c(=O)c2ccccc12 [IIIb-19]
> 100 nM	O=c1[nH]c2c(c3ccccc13)Cc1cc(CN3CCCCCC3)ccc1-2 [IIIb-22, 9-(1-Homopiperidinomethyl)-5,6-dihydro-5-oxo-11-H-indeno[1,2-c]isoquinoline]
> 60 nM	C[C@@H]1CN(Cc2ccc3c(c2)Cc2c-3[nH]c(=O)c3ccccc23)C[C@H](C)N1 [IIIb-24, 9-[1-(3,5-Dimethylpiperazino)methyl]-5,6-dihydro-5-oxo-11-H-indeno[1,2-c]isoquinoline]
20 nM	C=CCN1CCN(Cc2cccc3c2Cc2c-3[nH]c(=O)c3ccccc23)CC1 [IIa-1, 10-[1-(4-Allylpiperazino)methyl]-5,6-dihydro-5-oxo-11-H-indeno[1,2-c]isoquinoline]
30 nM	O=c1[nH]c2c(c3ccccc13)Cc1c(CN3CCC4(CC3)OCCO4)cccc1-2 [IIa-14, 10-[(4,4-Ethylenedioxy-piperidino)methyl]-5,6-dihydro-5-oxo-11-H-indeno[1,2-c]isoquinoline]
< 10 nM	O=c1[nH]c2c(c3ccccc13)Cc1c(CNC3(CO)CCCC3)cccc1-2 [IIa-27, 10-{N-[1-(Hydroxymethyl)cyclopentyl]aminomethyl}-5,6-dihydro-5-oxo-11-H-indeno[1,2-c]isoquinoline]
45 nM	C=CCN1CCN(Cc2ccc3c(c2)Cc2c-3[nH]c(=O)c3ccccc23)CC1 [IIb-1, 9-[1-(4-Allylpiperazino)methyl]-5,6-dihydro-5-oxo-11-H-indeno[1,2-c]isoquinoline]
80 nM	CCC(C)n1c2cc(CN3CCC4(CC3)OCCO4)ccc2c2[nH]c(=O)c3ccccc3c21 (centres unmarked) [IIb-23]
45 nM	N#CCCN1CCN(Cc2ccc3c(c2)Cc2c-3[nH]c(=O)c3ccccc23)CC1 [IIb-66, 9-{1-[4-(2-Cyanoethyl)piperazino]methyl}-5,6-dihydro-5-oxo-11-H-indeno[1,2-c]isoquinoline]
> 60 nM	CC(C)(C)OC(=O)N1CCC(N(Cc2ccc3c(c2)Cc2c-3[nH]c(=O)c3ccccc23)C2CC2)CC1 [IIb-79, 9-{N-[4-(1-Boc-piperidyl)]-N-cyclopropylaminomethyl}-5,6-dihydro-5-oxo-11-H-indeno[1,2-c]isoquinoline]
> 60 nM	CC(C)(C)OC(=O)N1CCC(NCc2ccc3c(c2)Cc2c-3[nH]c(=O)c3ccccc23)CC1 [IIb-92, 9-{N-[4-(1-Boc-piperidyl)]aminomethyl}-5,6-dihydro-5-oxo-11-H-indeno[1,2-c]isoquinoline]
60 nM	CCC(=O)N1CCCN(Cc2ccc3c(c2)Cc2c-3[nH]c(=O)c3ccccc23)CC1 [IIb-118, 9-[(4-Propionyl-homopiperazino)methyl]-5,6-dihydro-5-oxo-11-H-indeno[1,2-c]isoquinoline hydrochloride]
75 nM	O=C(CN1CCN(Cc2ccc3c(c2)Cc2c-3[nH]c(=O)c3ccccc23)CC1)N1CCCC1 [IIb-157, 9-{1-[4-(1-Pyrrolidinocarbonylmethyl)piperazino]methyl}-5,6-dihydro-5-oxo-11-H-indeno[1,2-c] isoquinoline]
75 nM	O=C(C1CC1)N1CCN(Cc2ccc3c(c2)Cc2c-3[nH]c(=O)c3ccccc23)CC1 [IIb-170, 9-{1-[4-(Cyclopropylcarbonyl)piperazino]methyl}-5,6-dihydro-5-oxo-11-H-indeno[1,2-c]isoquinoline]
75 nM	CCOC(CN1CCN(Cc2ccc3c(c2)Cc2c-3[nH]c(=O)c3ccccc23)CC1)OCC [IIb-196, 9-{1-[4-(2,2-Diethoxyethyl)piperazino]methyl}-5,6-dihydro-5-oxo-11-H-indeno[1,2-c]isoquinoline]
55 nM	O=c1[nH]c2c(c3ccccc13)Cc1cc(CN3CCC(F)(F)CC3)ccc1-2 [Methylsulfonate salt of IIIb-15, 9-[1-(4,4-Difluoropiperidino)methyl]-5,6-dihydro-5-oxo-11-H-indeno[1,2-c]isoquinoline methylsulfonate]
> 100 nM	O=c1[nH]c2c(c3cccc(Cl)c13)Cc1c(CNC3CCCC3)cccc1-2 [Va-1, 4-chloro-10-((cyclopentylamino)methyl)-6,11-dihydro-5H-indeno[1,2-c]isoquinolin-5-one]

Compound	EC50
CC(C)(C)OC(=O)N1CCN(Cc2ccc3c(c2)Cc2c-3[nH]c(=O)c3ccccc23)CC1 [IIIb-16, 9-[(4-tert-Butoxycarbonyl-piperazino)methyl]-5,6-dihydro-5-oxo-11-H-indeno[1,2-c]isoquinoline]	> 100 nM
